Experimental data published in patent US20120196875A1, “PHARMACEUTICAL COMPOSITIONS FOR TREATMENT OF RESPIRATORY AND INFLAMMATORY DISEASES” (BOEHRINGER INGELHEIM INTERNATIONAL GMBH, priority 2010, published 2012).

Test system: Dunkin-Harley guinea pigs (OVA broncho-constriction)
Assay: OVA-induced bronchospasm in sensitized, anaesthetized guinea pigs (modified Konzett-Rössler method, pyrilamin pre-treatment)
Format: in vivo, guinea pig
Experimental: Male and female Dunkin-Harley guinea pigs were obtained from the Experimental Animal Breeding Centre of Harlan Winkelmann (Germany). After fasting overnight, but with free access to drinking water, animals with body weight of 400-500 g were used.
Bronchospasm was recorded with a modified version of the method of Konzett-Röβler (described by Walland et al, in “Compensation of muscarinic bronchial effects of talsaclidine by concomitant sympathetic activation in guinea pigs”, European Journal of Pharmacology, Volume 330, Issue 2-3, 9 July 1997, Pages 213-219). The animals were ventilated by means of a piston pump (starling ventilator, Hugo Sachs Elektronik, Germany) at a stroke volume of 1 ml/100 g body weight and at a rate of 60 strokes per min. The tubing which connected the tracheal cannula with the ventilator was provided with a branch leading to the bronchospasm transducer (bronchospasm transducer 7020, Ugo Basile, Italy). The air flow measurement is based on the hot wire anemometer principle. Any air flow will reduce the temperature of the wire, thereby decreasing its resistance in proportion of the flow. As the wire element is one arm of a Weaststone bridge, variations in resistance generate a proportional voltage output which feeds the amplifier/recording system (Notocord-hem, Notocord, France). Blood pressure and heart rate are monitored from a carotid artery in order to check the anesthesia and the variability of the preparation.
Guinea pigs were sensitized on 2 consecutive days with 20 μg ovalbumin (OVA) (Sigma, St. Louis, Mo.) and 20 mg Al(OH)3 in 0.5 mL saline, which were administered subcutaneously. Experiments, which included OVA challenge, were conducted 2 weeks after sensitization. Approximately 1 hour before OVA challenge, the animals were anaesthetized with an intraperitoneal injection of 50 mg/kg pentobarbital. Anesthesia was prolonged by intravenous infusion of pentobarbital (15 mg/kg/h) via the jugular vein. A tracheal cannula was introduced after tracheotomy for artificial ventilation. The internal jugular vein was cannulated for drug injection while the left carotid artery was cannulated for measuring blood pressure and heart rate. The test compounds or combinations of compounds were administered orally 2 hours before the OVA challenge. Pyrilamin (anti-histaminic) is injected intravenously at 2 mg/kg, 6 minutes before OVA challenge in order to record the non histamine-related bronchospasm. The OVA challenge induces mast cell degranulation responsible for the bronchospasm due to the release into the lung of inflammatory mediators such as histamine, leukotrienes, prostaglandins and tromboxanes. The pre-treatment of the guinea pigs with pyrilamin prevents the part of the bronchospasm induced by histamine (around 40 to 50% of the bronchospasm). 30 Minutes after the beginning of air flow and blood pressure measurements, bronchoconstriction is triggered by an OVA challenge given at a fixed dose of 50 μg/kg inhaled.
The control group comprises 12 guinea-pigs, test compounds comprise 2 to 4 guinea-pigs. At the end of the experiment, animals are euthanized by an overdose of pentobarbital (100 mg/kg i.v.).
OVA challenge in control guinea-pigs induces an overflow of 33 (±10) ml which is used as 100% bronchospasm. Bronchoprotection of the drug (i.e. inhibition of OVA broncho-constriction) is expressed as a percentage of inhibition of the increase in overflow induced by OVA in the control animals.

[1] = CRTH2 antagonist (1) 0.001 mg/kg p.o. alone
[2] = CRTH2 antagonist (1) 0.003 mg/kg p.o. alone
[3] = CRTH2 antagonist (1) 0.01 mg/kg p.o. alone
[4] = CRTH2 antagonist (1) 0.03 mg/kg p.o. alone
[5] = CRTH2 antagonist (1) 0.1 mg/kg p.o. alone
[6] = CRTH2 antagonist (1) 0.3 mg/kg p.o. alone
[7] = CRTH2 antagonist (1) 1.0 mg/kg p.o. alone
[8] = CRTH2 antagonist (1) 3.0 mg/kg p.o. alone
[9] = CRTH2 antagonist (1) 10.0 mg/kg p.o. alone

`CN(C)c1nc(Cc2ccc(NC(=O)c3ccc(C(F)(F)F)cc3)cc2)nc(N(C)C)c1CC(=O)O` [CRTH2 antagonist (1), [4,6-bis(dimethylamino)-2-(4-(4-(trifluoromethyl)benzamido)-benzyl)pyrimidin-5-yl]acetic acid] was tested, and the bronchoprotection [1] was 0%, the overflow [1] was 38 mL and the bronchoprotection [2] was 0%. It also gave an overflow [2] of 35 mL, a bronchoprotection [3] of 0% and an overflow [3] of 40 mL. For the same compound, the bronchoprotection [4] was 0%, the overflow [4] was 33 mL and the bronchoprotection [5] was 0%. It also gave an overflow [5] of 41 mL, a bronchoprotection [6] of 24% and an overflow [6] of 25 mL. It also gave a bronchoprotection [7] of 42%, an overflow [7] of 19 mL and a bronchoprotection [8] of 64%. For the same compound, the overflow [8] was 12 mL, the bronchoprotection [9] was 70% and the overflow [9] was 10 mL.

With `O=C(Nc1c(Cl)cncc1Cl)c1ccc(OC(F)F)c(OCC2CC2)c1` [Roflumilast, roflumilast, reference compound] the overflow (Roflumilast 0.03 mg/kg p.o. alone, 2 hours before OVA challenge) was 28 mL and the bronchoprotection (Roflumilast 0.03 mg/kg p.o. alone, 2 hours before OVA challenge, inhibition of OVA-induced overflow vs control) was 15%.
